Legend:
EhGEF = biological target: T1, EhGEF (Entamoeba histolytica, UniProt C4LYE4); experiment: tryptophan fluorescence quenching titration; assay type: binding
T1 construct: gene EHI_008090; recombinant protein lacking PH domain (EhGEFΔPH), putative GEF domain

[1] = biological target: GST-tagged EhRho1 (wild type) (Entamoeba histolytica)

Nc1nc2c(ncn2[C@@H]2O[C@H](COP(=O)(O)OP(=O)(O)OP(=O)(O)O)[C@@H](O)[C@H]2O)c(=O)[nH]1 [GTP]
Kd (EhGEF): 298 µM

B1: HA-tagged EhGEF (full length wild type) (natural protein)
chain: MSEELKISVESLRPALFEGWGKKQGGSVKTWKKRWFVLKDNRLWYFASKTAEEAKGFIELPPGTETKDVSQNKKFMFSINSRNTKGSRVFYIVTENSVDHATFFDAVRKVLNKSSPSSVPAAQSTTPVNVPKAENQFTLQGNNSSTGLSTSTQPVTSTIPPMADAVNIPNSLQPKCDGRKNINKIKAKISWLQVEGENVVEFWKYWMDSTPQSDALEVGQSIQFMLVVSGNTEKLSWRVFGPQGALIQNMVDFFWNVGAPDEEIDHLNNLGCQINPSEIGSWIDMSVMNGMDGGWFFKGDLVCDVIRDTADKCEYAERLITWAKEHGLNYLCQMGRDMGATPPRQSEFRFKLDGVISSRMEKVHSAFTTFGFPPIPVNIVEILTNLPPVYTYFYLCVIVSSEGFVKISILVPAPKQDVVDAFLFAMSDVKDTHIALHKDITNTLGNTPLFVEYCYLNPGYGYEVYKEGADVLVHYNLGSESR
MANT-GDP dissociation from recombinant EhRho1 in presence of HA-EhGEF, compared with HsRhoA and EhRab1a [1]: 2 fold
